The text below walks through data of patent US11203571B2, “Sulfonamides as modulators of sodium channels” (VERTEX PHARMACEUTICALS INCORPORATED, priority 2013, dated 2021).

One data set addresses human Nav1.8 (Homo sapiens (Human), UniProt Q9Y5Y9). In words: E-VIPR optical membrane potential assay with electrical stimulation. To be noted: HEK cells expressing human Nav1.8. In kind it is cell-based. An excerpt:
E-VIPR Optical Membrane Potential Assay Method with Electrical Stimulation
Sodium channels are voltage-dependent proteins that can be activated by inducing membrane voltage changes by applying electric fields. The electrical stimulation instrument and methods of use are described in Ion Channel Assay Methods PCT/US01/21652, herein incorporated by reference and are referred to as E-VIPR. The instrument comprises a microtiter plate handler, an optical system for exciting the coumarin dye while simultaneously recording the coumarin and oxonol emissions, a waveform generator, a current- or voltage-controlled amplifier, and a device for inserting electrodes in well. Under integrated computer control, this instrument passes user-programmed electrical stimulus protocols to cells within the wells of the microtiter plate.
24 hours before the assay on E-VIPR, HEK cells expressing human Nav1.8 were seeded in 384-well poly-lysine coated plates at 15,000-20,000 cells per well. HEK cells were grown in media (exact composition is specific to each cell type and NaV subtype) supplemented with 10% FBS (Fetal Bovine Serum, qualified; GibcoBRL #16140-071) and 1% Pen-Strep (Penicillin-Streptomycin; GibcoBRL #15140-122). Cells were grown in vented cap flasks, in 90% humidity and 5% CO2.
• 100 mg/mL Pluronic F-127 (Sigma #P2443), in dry DMSO • Compound Plates: 384-well round bottom plate, e.g. Corning 384-well Polypropylene Round Bottom #3656 • Cell Plates: 384-well tissue culture treated plate, e.g. Greiner #781091-1B • 10 mM DiSBAC6(3) (Aurora #00-100-010) in dry DMSO • 10 mM CC2-DMPE (Aurora #00-100-008) in dry DMSO • 200 mM ABSC1 in H20
Bath1 buffer: Glucose 10 mM (1.8 g/L), Magnesium Chloride (Anhydrous), 1 mM (0.095 g/L), Calcium Chloride, 2 mM (0.222 g/L), HEPES 10 mM (2.38 g/L), Potassium Chloride, 4.5 mM (0.335 g/L), Sodium Chloride 160 mM (9.35 g/L).
Hexyl Dye Solution: Bath1 Buffer+0.5% β-cyclodextrin (make this prior to use, Sigma #C4767), 8 μM CC2-DMPE+2.5 μM DiSBAC6(3). To make the solution Added volume of 10% Pluronic F127 stock equal to volumes of CC2-DMPE+DiSBAC6(3). The order of preparation was first mix Pluronic and CC2-DMPE, then added DiSBAC6(3) while vortexing, then added Bath1+β-Cyclodextrin.
1) Pre-spotted compounds (in neat DMSO) into compound plates. Vehicle control (neat DMSO), the positive control (20 mM DMSO stock tetracaine, 125 μM final in assay) and test compounds were added to each well at 160× desired final concentration in neat DMSO. Final compound plate volume was 80 μL (80-fold intermediate dilution from 1 μL DMSO spot; 160-fold final dilution after transfer to cell plate). Final DMSO concentration for all wells in assay was 0.625%.
2) Prepared Hexyl Dye Solution.
3) Prepared cell plates. On the day of the assay, medium was aspirated and cells were washed three times with 100 μL of Bath1 Solution, maintaining 25 μL residual volume in each well.
4) Dispensed 25 μL per well of Hexyl Dye Solution into cell plates. Incubated for 20-35 minutes at room temp or ambient conditions.
5) Dispensed 80 μL per well of Bath1 into compound plates. Acid Yellow-17 (1 mM) was added and Potassium Chloride was altered from 4.5 to 20 mM depending on the NaV subtype and assay sensitivity.
6) Washed cell plates three times with 100 μL per well of Bath1, leaving 25 μL of residual volume. Then transferred 25 uL per well from Compound Plates to Cell Plates. Incubated for 20-35 minutes at room temp/ambient condition.
7) Read Plate on E-VIPR. Used the current-controlled amplifier to deliver stimulation wave pulses for 10 seconds and a scan rate of 200 Hz. A pre-stimulus recording was performed for 0.5 seconds to obtain the un-stimulated intensities baseline. The stimulatory waveform was followed by 0.5 seconds of post-stimulation recording to examine the relaxation to the resting state.
Data was analyzed and reported as normalized ratios of emission intensities measured in the 460 nm and 580 nm channels. […]

Data set [1] can be described thus: Human liver microsome assay. In kind it is in vitro ADME. Particulars: 1 uM substrate, 0.5 mg/mL liver microsome, 2 mM NADPH, 37° C., referenced against time zero control. The method, then: Human Liver Microsome Assay Protocol
Liver microsomal stability data were generated as follows. Substrates were incubated at 37° C. and shaken for 30 minutes in a phosphate buffered solution with human liver microsomes and the cofactor NADPH. A time zero control was similarly prepared, however with NADPH excluded. The final incubation concentrations were 1 uM substrate (0.2% DMSO), 0.5 mg/mL liver microsome, 2 mM NADPH, and 0.1 M phosphate. Reactions were quenched and proteins precipitated with the addition of 2 volume equivalents of ice cold acetonitrile containing an internal standard. Following a centrifugation step, aliquots from the quenched incubations were further diluted with 4 volume equivalents of a 50% aqueous methanol solution and then subjected to LC/MS/MS analysis for quantitation of parent substrate. Microsome stability values were calculated as the percent of substrate remaining after 30 minutes referenced against the time zero control.

human Nav1.8, sequence (Q9Y5Y9 whole entry): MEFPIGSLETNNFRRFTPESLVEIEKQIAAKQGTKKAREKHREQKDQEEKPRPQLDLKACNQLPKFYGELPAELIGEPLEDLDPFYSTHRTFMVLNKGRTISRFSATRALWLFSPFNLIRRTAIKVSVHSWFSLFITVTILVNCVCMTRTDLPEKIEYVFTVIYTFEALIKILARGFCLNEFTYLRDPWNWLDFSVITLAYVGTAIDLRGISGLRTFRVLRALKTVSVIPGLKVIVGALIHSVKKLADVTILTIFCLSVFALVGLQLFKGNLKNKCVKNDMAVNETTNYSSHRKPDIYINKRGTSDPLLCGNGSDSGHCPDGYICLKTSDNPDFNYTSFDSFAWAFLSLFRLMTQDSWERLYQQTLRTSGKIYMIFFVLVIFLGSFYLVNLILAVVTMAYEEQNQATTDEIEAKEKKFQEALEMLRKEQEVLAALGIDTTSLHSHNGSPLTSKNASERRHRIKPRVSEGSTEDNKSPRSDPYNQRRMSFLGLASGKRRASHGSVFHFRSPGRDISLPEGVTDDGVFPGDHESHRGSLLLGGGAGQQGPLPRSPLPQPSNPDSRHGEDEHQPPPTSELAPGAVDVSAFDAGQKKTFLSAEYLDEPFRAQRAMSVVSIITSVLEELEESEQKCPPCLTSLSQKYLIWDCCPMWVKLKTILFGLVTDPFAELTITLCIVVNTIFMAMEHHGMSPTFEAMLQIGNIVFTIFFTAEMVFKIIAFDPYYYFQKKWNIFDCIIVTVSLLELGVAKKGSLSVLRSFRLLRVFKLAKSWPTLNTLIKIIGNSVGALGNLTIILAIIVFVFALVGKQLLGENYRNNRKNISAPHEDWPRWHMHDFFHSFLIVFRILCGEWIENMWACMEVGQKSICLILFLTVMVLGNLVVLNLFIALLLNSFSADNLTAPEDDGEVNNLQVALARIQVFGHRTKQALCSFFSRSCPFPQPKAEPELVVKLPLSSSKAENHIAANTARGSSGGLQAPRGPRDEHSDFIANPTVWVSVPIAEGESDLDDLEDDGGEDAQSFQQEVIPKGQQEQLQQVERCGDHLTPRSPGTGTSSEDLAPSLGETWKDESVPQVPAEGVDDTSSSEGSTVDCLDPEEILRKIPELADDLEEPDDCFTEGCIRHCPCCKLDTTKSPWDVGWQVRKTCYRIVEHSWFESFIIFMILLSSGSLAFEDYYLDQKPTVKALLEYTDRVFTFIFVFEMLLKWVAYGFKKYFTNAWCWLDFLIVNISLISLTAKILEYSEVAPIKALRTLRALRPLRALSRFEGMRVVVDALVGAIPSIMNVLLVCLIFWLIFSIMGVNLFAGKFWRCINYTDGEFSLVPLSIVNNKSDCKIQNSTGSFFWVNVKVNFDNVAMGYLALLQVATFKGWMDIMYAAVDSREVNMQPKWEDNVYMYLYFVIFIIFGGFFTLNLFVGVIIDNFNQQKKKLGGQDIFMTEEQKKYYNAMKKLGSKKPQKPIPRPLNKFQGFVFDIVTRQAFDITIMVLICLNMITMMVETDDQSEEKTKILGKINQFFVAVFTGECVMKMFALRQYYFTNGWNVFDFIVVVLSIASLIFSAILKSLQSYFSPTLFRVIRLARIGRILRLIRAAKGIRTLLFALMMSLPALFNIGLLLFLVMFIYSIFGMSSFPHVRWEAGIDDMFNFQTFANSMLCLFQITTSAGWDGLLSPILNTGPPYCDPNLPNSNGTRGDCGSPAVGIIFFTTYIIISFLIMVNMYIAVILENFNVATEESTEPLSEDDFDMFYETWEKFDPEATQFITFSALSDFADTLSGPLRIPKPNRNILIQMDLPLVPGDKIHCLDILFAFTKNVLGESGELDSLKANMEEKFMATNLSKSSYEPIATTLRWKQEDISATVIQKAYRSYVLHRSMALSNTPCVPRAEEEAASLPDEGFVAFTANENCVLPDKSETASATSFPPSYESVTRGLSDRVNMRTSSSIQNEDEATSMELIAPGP

As usually defined, the IC50 is the concentration that gives 50% inhibition. Read a high IC50 as weaker potency in that assay. In the case of `NS(=O)(=O)c1cccc(NC(=O)c2cc(C(F)(F)F)ccc2Oc2ccc(OC(F)F)cc2)c1` [Compound 41, 2-(4-(difluoromethoxy)phenoxy)-N-(3-sulfamoylphenyl)-5-(trifluoromethyl)benzamide], the IC50 at human Nav1.8 came out at 22 nM. For the same compound, in data set [1], the “HLM: percent unchanged after 30 min” value is reported as 95%.

For the compound `COc1cc(Cl)ccc1Oc1cc(C(F)(F)F)ccc1C(=O)Nc1cccc(S(N)(=O)=O)c1` [Compound 42, 2-(4-chloro-2-methoxyphenoxy)-N-(3-sulfamoylphenyl)-4-(trifluoromethyl)benzamide], the IC50 on human Nav1.8 stood at 10 nM. Further, the “HLM: percent unchanged after 30 min” value in data set [1] worked out at 84%.

Compound `COc1ccc(Oc2cc(C(F)(F)F)ccc2C(=O)Nc2cccc(S(N)(=O)=O)c2)cc1F` [Compound 43, 2-(3-fluoro-4-methoxyphenoxy)-N-(3-sulfamoylphenyl)-4-(trifluoromethyl)benzamide] registered an IC50 against human Nav1.8 of 21 nM. Besides, the “HLM: percent unchanged after 30 min” value in data set [1] is 90%.

At human Nav1.8, `COc1ccccc1Oc1cc(C(F)(F)F)ccc1C(=O)Nc1cccc(S(N)(=O)=O)c1` [Compound 44, 2-(2-methoxyphenoxy)-N-(3-sulfamoylphenyl)-4-(trifluoromethyl)benzamide] had an IC50 of 20 nM. In data set [1], the “HLM: percent unchanged after 30 min” value stood at 79%.

Take `CCOc1ccc(Oc2cc(C(F)(F)F)ccc2C(=O)Nc2cccc(S(N)(=O)=O)c2)cc1` [Compound 45, 2-(4-ethoxyphenoxy)-N-(3-sulfamoylphenyl)-4-(trifluoromethyl)benzamide]: it took 21 nM to reach half-maximal inhibition at human Nav1.8 (IC50). Besides, the “HLM: percent unchanged after 30 min” value in data set [1] worked out at 72%.

Compound `CCCOc1ccccc1Oc1cc(C(F)(F)F)ccc1C(=O)Nc1cccc(S(N)(=O)=O)c1` [Compound 46, 2-(2-propoxyphenoxy)-N-(3-sulfamoylphenyl)-4-(trifluoromethyl)benzamide] had an IC50 at human Nav1.8 of 14 nM. For the same compound, in data set [1], the “HLM: percent unchanged after 30 min” value was 67%.

As to `Cc1ccccc1Oc1cc(C(F)(F)F)ccc1C(=O)Nc1cccc(S(N)(=O)=O)c1` [Compound 47, N-(3-sulfamoylphenyl)-2-(o-tolyloxy)-4-(trifluoromethyl)benzamide], the midpoint of inhibition at human Nav1.8, the IC50, lay at 14 nM. Moreover, in data set [1], the “HLM: percent unchanged after 30 min” value stood at 100%.

`COc1ccc(Oc2cc(C(F)(F)F)ccc2C(=O)Nc2cccc(S(N)(=O)=O)c2)c(Cl)c1` [Compound 48, 2-(2-chloro-4-methoxyphenoxy)-N-(3-sulfamoylphenyl)-4-(trifluoromethyl)benzamide] displayed an IC50 against human Nav1.8 of 10 nM. Further, the “HLM: percent unchanged after 30 min” value in data set [1] is 68%.

Consider `COc1ccc(Oc2cc(C(F)(F)F)ccc2C(=O)Nc2cccc(S(N)(=O)=O)c2)c(C)c1` [Compound 49, 2-(4-methoxy-2-methylphenoxy)-N-(3-sulfamoylphenyl)-4-(trifluoromethyl)benzamide], for which the IC50 at human Nav1.8 is 12 nM. Moreover, the “HLM: percent unchanged after 30 min” value in data set [1] was 57%.

Consider `COc1ccc(Oc2cc(C(F)(F)F)ccc2C(=O)Nc2cccc(S(N)(=O)=O)c2)c(OC)c1` [Compound 50, 2-(2,4-dimethoxyphenoxy)-N-(3-sulfamoylphenyl)-4-(trifluoromethyl)benzamide], for which it took 8 nM to reach half-maximal inhibition against human Nav1.8 (IC50). The “HLM: percent unchanged after 30 min” value in data set [1] was 72%.

As to `NS(=O)(=O)c1cccc(NC(=O)c2ccc(C(F)(F)F)cc2Oc2ccc(OC(F)(F)F)cc2)c1` [Compound 51, N-(3-sulfamoylphenyl)-2-(4-(trifluoromethoxy)phenoxy)-4-(trifluoromethyl)benzamide], the IC50 at human Nav1.8 came out at 14 nM. In addition, the “HLM: percent unchanged after 30 min” value in data set [1] came out at 89%.

`COc1c(F)cccc1Oc1cc(C(F)(F)F)ccc1C(=O)Nc1cccc(S(N)(=O)=O)c1` [Compound 52, 2-(3-fluoro-2-methoxyphenoxy)-N-(3-sulfamoylphenyl)-4-(trifluoromethyl)benzamide]: it took 11 nM to reach half-maximal inhibition at human Nav1.8 (IC50). Moreover, the “HLM: percent unchanged after 30 min” value in data set [1] is reported as 81%.

At human Nav1.8, `CC(C)Oc1ccc(Oc2cc(C(F)(F)F)ccc2C(=O)Nc2cccc(S(N)(=O)=O)c2)cc1` [Compound 53, 2-(4-isopropoxyphenoxy)-N-(3-sulfamoylphenyl)-4-(trifluoromethyl)benzamide] gave an IC50 of 26 nM. In addition, in data set [1], the “HLM: percent unchanged after 30 min” value is given as 71%.

For `COc1cc(F)ccc1Oc1cc(OC(F)(F)F)ccc1C(=O)Nc1cccc(S(N)(=O)=O)c1` [Compound 54, 2-(4-fluoro-2-methoxyphenoxy)-N-(3-sulfamoylphenyl)-4-(trifluoromethoxy)benzamide], inhibition against human Nav1.8 was half-maximal at 5 nM (IC50). The “HLM: percent unchanged after 30 min” value in data set [1] came to 96%.

With `NS(=O)(=O)c1cccc(NC(=O)c2ccc(OC(F)(F)F)cc2Oc2ccc(F)cc2)c1` [Compound 55, 2-(4-fluorophenoxy)-N-(3-sulfamoylphenyl)-4-(trifluoromethoxy)benzamide], the IC50 against human Nav1.8 came out at 9 nM. Also, in data set [1], the “HLM: percent unchanged after 30 min” value was 95%.

`NS(=O)(=O)c1cccc(NC(=O)c2ccc(OC(F)(F)F)cc2Oc2ccc(F)cc2Cl)c1` [Compound 56, 2-(2-chloro-4-fluorophenoxy)-N-(3-sulfamoylphenyl)-4-(trifluoromethoxy)benzamide]: at human Nav1.8, the IC50 turned out to be 4 nM. The “HLM: percent unchanged after 30 min” value in data set [1] is recorded as 102%.

Compound `COc1ccccc1Oc1cccc(C(F)(F)F)c1C(=O)Nc1cccc(S(N)(=O)=O)c1` [Compound 57, 2-(2-methoxyphenoxy)-N-(3-sulfamoylphenyl)-6-(trifluoromethyl)benzamide] returned an IC50 at human Nav1.8 of 27 nM. In data set [1], the “HLM: percent unchanged after 30 min” value was 78%.

Turning to `Cc1cc(Cl)ccc1Oc1cccc(C(F)(F)F)c1C(=O)Nc1cccc(S(N)(=O)=O)c1` [Compound 58, 2-(4-chloro-2-methylphenoxy)-N-(3-sulfamoylphenyl)-6-(trifluoromethyl)benzamide], the IC50 at human Nav1.8 was 6 nM. Besides, the “HLM: percent unchanged after 30 min” value in data set [1] worked out at 107%.

For `Cc1c(F)cccc1Oc1cccc(C(F)(F)F)c1C(=O)Nc1cccc(S(N)(=O)=O)c1` [Compound 59, 2-(3-fluoro-2-methylphenoxy)-N-(3-sulfamoylphenyl)-6-(trifluoromethyl)benzamide], at human Nav1.8, the 50% inhibitory concentration (IC50) was found to be 14 nM. In addition, the “HLM: percent unchanged after 30 min” value in data set [1] is 66%.

Compound `NS(=O)(=O)c1cccc(NC(=O)c2c(Oc3ccc(OC(F)(F)F)cc3)cccc2C(F)(F)F)c1` [Compound 60, N-(3-sulfamoylphenyl)-2-(4-(trifluoromethoxy)phenoxy)-6-(trifluoromethyl)benzamide] came in with an IC50 against human Nav1.8 of 9 nM. Further, the “HLM: percent unchanged after 30 min” value in data set [1] was determined as 92%.

Consider `COc1ccc(Oc2cccc(C(F)(F)F)c2C(=O)Nc2cccc(S(N)(=O)=O)c2)cc1F` [Compound 61, 2-(3-fluoro-4-methoxyphenoxy)-N-(3-sulfamoylphenyl)-6-(trifluoromethyl)benzamide], for which, at human Nav1.8, the half-inhibitory concentration (IC50) came out at 28 nM. Moreover, the “HLM: percent unchanged after 30 min” value in data set [1] stood at 68%.
